From patent US20230051589A1, “COMPOUNDS AND COMPOSITIONS FOR TREATING CONDITIONS ASSOCIATED WITH NLRP ACTIVITY” (Novartis AG, priority 2018, published 2023)

system: IL-1β production in PMA-differentiated THP-1 cells; assay: IL-1β production in PMA-differentiated THP-1 cells stimulated with gramicidin (hTHP-1 assay, 2% fetal bovine serum; Procedures 1-3); assay type: cell-based, human; conditions: Table B1; hTHP-1 assay containing 2% fetal bovine serum, gramicidin stimulation, IL-1β readout; read-out: hTHP-1 IC50 (average)
Method: The following protocol is suitable for testing the activity of the compounds disclosed herein.
Procedure 1: IL-1β Production in PMA-Differentiated THP-1 Cells Stimulated with Gramicidin.
THP-1 cells were purchased from the American Type Culture Collection and sub-cultured according to instructions from the supplier. Cells were cultured in complete RPMI 1640 (containing 10% heat inactivated FBS, penicillin (100 units/ml) and streptomycin (100 μg/ml)), and maintained in log phase prior to experimental setup. Prior to the experiment, compounds were dissolved in dimethyl sulfoxide (DMSO) to generate a 30 mM stock. The compound stock was first pre-diluted in DMSO to 3, 0.34, 0.042 and 0.0083 mM intermediate concentrations and subsequently spotted using Echo550 liquid handler into an empty 384-well assay plate to achieve desired final concentration (e.g. 100, 33, 11, 3.7, 1.2, 0.41, 0.14, 0.046, 0.015, 0.0051, 0.0017 μM). DMSO was backfilled in the plate to achieve a final DMSO assay concentration of 0.37%. The plate was then sealed and stored at room temperature until required.
THP-1 cells were treated with PMA (Phorbol 12-myristate 13-acetate) (20 ng/ml) for 16-18 hours. On the day of the experiment the media was removed and adherent cells were detached with trypsin for 5 minutes. Cells were then harvested, washed with complete RPMI 1640, spun down, and resuspended in RPMI 1640 (containing 2% heat inactivated FBS, penicillin (100 units/ml) and streptomycin (100 μg/ml). The cells were plated in the 384-well assay plate containing the spotted compounds at a density of 50,000 cells/well (final assay volume 50 μl). Cells were incubated with compounds for 1 hour and then stimulated with gramicidin (5 μM) (Enzo) for 2 hours. Plates were then centrifuged at 340 g for 5 min. Cell free supernatant (40 μL) was collected using a 96-channel PlateMaster (Gilson) and the production of IL-1β was evaluated by HTRF (cisbio). The plates were incubated for 18 h at 4° C. and read using the preset HTRF program (donor emission at 620 nm, acceptor emission at 668 nm) of the SpectraMax i3x spectrophotometer (Molecular Devices, software SoftMax 6). A vehicle only control and a dose titration of CRID3 (100-0.0017 μM) were run concurrently with each experiment.
Procedure 2: IL-1β Production in PMA-Differentiated THP-1 Cells Stimulated with Gramicidin.
THP-1 cells were purchased from the American Type Culture Collection and sub-cultured according to instructions from the supplier. Prior to experiments, cells were cultured in complete RPMI 1640 (containing 10% heat inactivated FBS, penicillin (100 units/ml) and streptomycin (100 μg/ml)), and maintained in log phase prior to experimental setup. Prior to the experiment THP-1 were treated with PMA (Phorbol 12-myristate 13-acetate) (20 ng/ml) for 16-18 hours. Compounds were dissolved in dimethyl sulfoxide (DMSO) to generate a 30 mM stock. On the day of the experiment the media was removed and adherent cells were detached with trypsin for 5 minutes. Cells were then harvested, washed with complete RPMI 1640, spun down, resuspended in RPMI 1640 (containing 2% heat inactivated FBS, penicillin (100 units/ml) and streptomycin (100 μg/ml) . The cells were plated in a 384-well plate at a density of 50,000 cells/well (final assay volume 50 μl). Compounds were first dissolved in assay medium to obtain a 5× top concentration of 500 μM. 10 step dilutions (1:3) were then undertaken in assay medium containing 1.67% DMSO. 5× compound solutions were added to the culture medium to achieve desired final concentration (e.g. 100, 33, 11, 3.7, 1.2, 0.41, 0.14, 0.046, 0.015, 0.0051, 0.0017 μM). Final DMSO concentration was at 0.37%. Cells were incubated with compounds for 1 hour and then stimulated with gramicidin (5 μM) (Enzo) for 2 hours. Plates were then centrifuged at 340 g for 5 min. Cell free supernatant (40 μL) was collected using a 96-channel PlateMaster (Gilson) and the production of IL-1β was evaluated by HTRF (cisbio). […]

SMILES	IC50
CC(C)(O)c1ncc(S(N)(=O)=NC(=O)Nc2c3c(cc4c2OCC4)CCC3)s1 (single isomer, unassigned) [Example 343, (R) or (S)-2-(2-hydroxy-propan-2-yl)-N′-((3,5,6,7-tetrahydro-2H-indeno[5,6-b]furan-8-yl)carbamoyl)-thiazole-5-sulfonimidamide]	40 to 200 nM
CC(C)(O)c1cnc(S(N)(=O)=NC(=O)Nc2c3c(cc4c2OCC4)CCC3)s1 (single isomer, unassigned) [Example 350, (R) or (S)-5-(2-hydroxy-propan-2-yl)-N′-((3,5,6,7-tetrahydro-2H-indeno-[5,6-b]furan-8-yl)carbam-oyl)thiazole-2-sulfonimid-amide]	40 to 200 nM
CC(C)(O)c1csc(S(N)(=O)=NC(=O)Nc2c3c(cc4c2OCC4)CCC3)n1 (single isomer, unassigned) [Example 354, (R) or (S)-4-(2-hydroxy-propan-2-yl)-N′-((3,5,6,7-tetrahydro-2H-indeno-[5,6-b]furan-8-yl)carbam-oyl)thiazole-2-sulfonimid-amide]	8 to 40 nM
CN(C)S(=O)(=NC(=O)Nc1c2c(cc3c1CCC3)CCC2)c1cc(C(C)(C)O)cs1 (single isomer, unassigned) [Example 357, (R) or (S)-N′-((1,2,3,5,6,7-hexahydro-s-indacen-4-yl)-carbamoyl)-4-(2-hydroxy-propan-2-yl)-N,N-dimeth-ylthiophene-2-sulfonimid-amide]	5000 to 30000 nM
CN(C)C(C)(C)c1ccc(S(N)(=O)=NC(=O)Nc2c3c(cc4c2CCC4)CCC3)cc1 (single isomer, unassigned) [Example 361, (R) or (S)-4-(2-(dimethyl-amino)propan-2-yl)-N′-((1,2,3,5,6,7-hexahydro-s-indacen-4-yl)carbamoyl)-benzenesulfonimidamide]	40 to 200 nM
CC(C)(O)c1ncc(S(N)(=O)=NC(=O)Nc2c3c(cc4c2C(=O)CC4)CCC3)s1 (single isomer, unassigned) [Example 364, (R) or (S)-2-(2-Hydroxy-propan-2-yl)-N′-((3-oxo-1,2,3,5,6,7-hexahydro-s-indacen-4-yl)carbamoyl)-thiazole-5-sulfonimidamide]	40 to 200 nM
CC(=O)N(C)Cc1ccc(S(N)(=O)=NC(=O)Nc2c3c(cc4c2CCC4)CCC3)cc1 (single isomer, unassigned) [Example 366, (R) or (S)-N-(4-N′-((1,2,3,5,6,7-hexahydro-s-indacen-4-yl)carbamoyl)-sulfamidimidoyl)benzyl)-N-methylacetamide]	1000 to 5000 nM
CC(c1ccc(S(N)(=O)=NC(=O)Nc2c3c(cc4c2CCC4)CCC3)cc1)N(C)C (single isomer, unassigned) [Example 372, (R) or (S)-4-(1-(dimethyl-amino)ethyl)-N′-((1,2,3,5,6,7-hexahydro-s-indacen-4-yl)carbamoyl)-benzenesulfonimidamide]	40 to 200 nM
CC(c1ccc(S(N)(=O)=NC(=O)Nc2c3c(cc4c2CCC4)CCC3)cc1)N(C)C (single isomer, unassigned) [Example 377, (R, R) or (R, S) or (S, S) or (S, R)-4-(1-(dimethyl-amino)ethyl)-N′-((1,2,3,5,6,7-hexahydro-s-indacen-4-yl)carbamoyl)-benzenesulfonimidamide]	40 to 200 nM
COC1CN(Cc2ccc(S(N)(=O)=NC(=O)Nc3c4c(cc5c3CCC5)CCC4)cc2)C1 (single isomer, unassigned) [Example 379, (R) or (S)-N′-((1,2,3,5,6,7-hexahydro-s-indacen-4-yl)carbamoyl)-4-((3-methoxyazelidin-1-yl)-methyl)benzenesulfonimid-amide]	1000 to 5000 nM
CN(C)Cc1cc(F)c(S(N)(=O)=NC(=O)Nc2c3c(cc4c2CCC4)CCC3)s1 (single isomer, unassigned) [Example 381, (R) or (S)-5-((dimethyl-amino)methyl)-3-fluoro-N′-((1,2,3,5,6,7-hexa-hydro-s-indacen-4-yl)-carbamoyl)thiophene-2-sulfonimidamide]	8 to 40 nM
CC(C)(O)c1cc(F)c(S(N)(=O)=NC(=O)Nc2c3c(cc4c2CCC4)CCC3)s1 (single isomer, unassigned) [Example 385, (R) or (S)-3-fluoro-N′-((1,2,3,5,6,7-hexahydro-s-indacen-4-yl)carbamoyl)-5-(2-hydroxypropan-2-yl)thiophene-2-sulfonimid-amide]	8 to 40 nM
COC(C)(C)c1ncc(S(N)(=O)=NC(=O)Nc2c3c(cc4c2CCC4)CCC3)s1 (single isomer, unassigned) [Example 388, (R) or (S)-N′-((1,2,3,5,6,7-hexahydro-s-indacen-4-yl)carbamoyl)-2-(2-meth-oxypropan-2-yl)thiazole-5-sulfonimidamide]	40 to 200 nM
COCCN(C)Cc1ccc(S(N)(=O)=NC(=O)Nc2c3c(cc4c2CCC4)CCC3)cc1 (single isomer, unassigned) [Example 390, (R) or (S)-N′-((1,2,3,5,6,7-hexahydro-s-indacen-4-yl)carbamoyl)-4-(((2-meth-oxyethyl)(methyl)amino)-methyl)benzenesulfonimid-amide]	1000 to 5000 nM
CC(C)(O)c1ncc(S(N)(=O)=NC(=O)Nc2c3c(cc4c2C(O)CC4)CCC3)s1 (single isomer, unassigned) [Example 391, (R, R) or (R, S) or (S, S) or (S, R)-N′-((3-hydroxy-1,2,3,5,6,7-hexahydro-s-indacen-4-yl)carbamoyl)-2-(2-hydroxypropan-2-yl)thiazole-5-sulfonimid-amide]	200 to 1000 nM
CC(C)(O)c1ncc(S(N)(=O)=NC(=O)Nc2c3c(cc4c2C(O)CC4)CCC3)s1 (single isomer, unassigned) [Example 392, (R, S) or (R, R) or (S, R) or (S, S)-N′-((3-hydroxy-1,2,3,5,6,7-hexahydroxy-indacen-4-yl)carbamoyl)-2-(2-hydroxypropan-2-yl)thiazole-5-sulfonimid-amide]	200 to 1000 nM
CN1CCc2cc(S(N)(=O)=NC(=O)Nc3c4c(cc5c3CCC5)CCC4)ccc2C1 (single isomer, unassigned) [Example 395, (R) or (S)-N′-((1,2,3,5,6,7-hexahydro-s-indacen-4-yl)carbamoyl)-2-methyl-1,2,3,4-tetrahydroisoquin-oline-6-sulfonimidamide]	1000 to 5000 nM
COC(C)(C)c1ccc(S(N)(=O)=NC(=O)Nc2c3c(cc4c2CCC4)CCC3)cc1 (single isomer, unassigned) [Example 399, (R) or (S)-N′-((1,2,3,5,6,7-hexahydro-s-indacen-4-yl)carbamoyl)-4-(2-meth-oxypropan-2-yl)benzene-sulfonimidamide]	200 to 1000 nM
CC(C)c1ccc(S(N)(=O)=NC(=O)Nc2c3c(cc4c2CCC4)CCC3)cn1 (single isomer, unassigned) [Example 402, (S) or (R)-N′-((1,2,3,5,6,7-hexahydro-s-indacen-4-yl)carbamoyl)-6-isopropyl-pyridine-3-sulfonimidamide]	1000 to 5000 nM
NCc1ccc(S(N)(=O)=NC(=O)Nc2c3c(cc4c2CCC4)CCC3)cc1 (single isomer, unassigned) [Example 411, (R) or (S)-4-(aminomethyl)-N′-((1,2,3,5,6,7-hexahydro-5-indacen-4-yl)carbamoyl)-benzenesulfonimidamide]	1000 to 5000 nM
